Our source for the IC50 values is US11008317B2, “Triazolopyridine inhibitors of myeloperoxidase and/or EPX” (priority 2016, dated 2021).

Assay [1] addresses T1, myeloperoxidase (Homo sapiens, UniProt P05164).
T1 sequence (P05164 49-745): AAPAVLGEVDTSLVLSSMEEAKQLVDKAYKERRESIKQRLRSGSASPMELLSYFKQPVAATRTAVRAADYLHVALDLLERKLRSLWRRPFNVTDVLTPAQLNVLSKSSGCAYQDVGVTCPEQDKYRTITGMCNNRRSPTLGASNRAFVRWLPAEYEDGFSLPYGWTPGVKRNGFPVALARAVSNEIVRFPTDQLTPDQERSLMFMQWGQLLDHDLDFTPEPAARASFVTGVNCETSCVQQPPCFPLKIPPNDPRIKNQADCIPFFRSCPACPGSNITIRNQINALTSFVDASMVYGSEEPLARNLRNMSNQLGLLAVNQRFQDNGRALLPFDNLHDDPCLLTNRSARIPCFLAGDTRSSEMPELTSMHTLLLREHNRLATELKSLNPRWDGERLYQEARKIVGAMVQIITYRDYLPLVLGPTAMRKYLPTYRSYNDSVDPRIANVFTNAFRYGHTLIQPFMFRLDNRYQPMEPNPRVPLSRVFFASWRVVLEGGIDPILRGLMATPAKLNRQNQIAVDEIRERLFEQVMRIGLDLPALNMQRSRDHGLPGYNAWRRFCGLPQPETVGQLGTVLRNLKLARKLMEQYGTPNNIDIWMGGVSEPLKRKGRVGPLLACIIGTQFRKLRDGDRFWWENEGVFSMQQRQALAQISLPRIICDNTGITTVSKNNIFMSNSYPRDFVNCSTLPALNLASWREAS
The experiment in a line: MPO Peroxidation Assay (Amplex Red Assay). The format is biochemical. The following applies: potency range class.

Assay [2] concerns the target T1, myeloperoxidase. The experiment in a line: MPO Chlorination Assay (APF Assay). Conditions: potency range class. The format is biochemical.
Setting [3] is: read-out: Amplex Red Assay IC50 value.

What is called IC50 is the midpoint of a concentration-inhibition curve.

Turning to `Nc1cc(C(CCNC2CCC(c3ccccc3)(c3ccccc3)CC2)c2ccccc2)c2nn[nH]c2n1` (centres unmarked) [Example 127, 7-{3-[(4,4-diphenylcyclohexyl)amino]-1-phenylpropyl}-3H-[1,2,3]triazolo[4,5-b]pyridin-5-amine], the results for the IC50 on myeloperoxidase [1] (setting [3]) and at myeloperoxidase [2] (read-out: APF Assay IC50 value) were 1 to 10 µM and 0.001 to 0.1 µM, respectively.
For the compound `Nc1cc(C(CCNC2(c3ccccc3)CCCCC2)c2ccccc2)c2nn[nH]c2n1` (centres unmarked) [Example 128, 7-{1-phenyl-3-[(1-phenylcyclohexyl)amino]propyl}-3H-[1,2,3]triazolo [4,5-b]pyridin-5-amine], the values for the 50% inhibitory concentration (IC50) at myeloperoxidase [1] (Amplex Red Assay IC50 value (μM)) and on myeloperoxidase [2] (APF Assay IC50 value (μM)) were 1 to 10 µM and 0.001 to 0.1 µM, respectively.
For `Nc1cc(C(CCNC2CCC(Cc3ccccc3)CC2)c2ccccc2)c2nn[nH]c2n1` (centres unmarked) [Example 129, 7-{3-[(4-benzylcyclohexyl)amino]-1-phenylpropyl}-3H-[1,2,3]triazolo[4,5-b]pyridin-5-amine], the figures for the IC50 on myeloperoxidase [1] (setting [3]) and at myeloperoxidase [2] (read-out: APF Assay IC50 value) were 1 to 10 µM and 0.001 to 0.1 µM, respectively.
Turning to `CCCCC12CCC(NCCC(c3ccccc3)c3cc(N)nc4[nH]nnc34)(CC1)CC2` (centres unmarked) [Example 130, 7-[3-({4-butylbicyclo [2.2.2]octan-1-yl}amino)-1-phenylpropyl]-3H-[1,2,3]triazolo[4,5-b]pyridin-5-amine], the 50% inhibitory concentration (IC50) on myeloperoxidase [1] (setting [3]) fell in the range of 0.101 to 0.999 µM; at myeloperoxidase [2] (read-out: APF Assay IC50 value), 0.001 to 0.1 µM.
Consider `Nc1cc(C(CCNC2CCC(c3cccnc3)CC2)c2ccccc2)c2nn[nH]c2n1` (centres unmarked) [Example 132, 7-(1-phenyl-3-{[4-(pyridin-3-yl)cyclohexyl]amino]propyl)-3H-[1,2,3] triazolo[4,5-b] pyridin-5-amine], for which the IC50 on myeloperoxidase [1] (setting [3]) and at myeloperoxidase [2] (read-out: APF Assay IC50 value) was 1 to 10 µM each time.
For `Nc1cc(C(CCN[C@H]2CC[C@@H](c3ccc(=O)[nH]c3)CC2)c2ccccc2)c2nn[nH]c2n1` (stereo partly drawn) [Example 133, 5-[(cis)-4-[(3-{5-amino-3H-[1,2,3]triazolo[4,5-b]pyridin-7-yl}-3-phenylpropyl)amino]cyclohexyl]-1,2-dihydropyridin-2-one], the IC50 on myeloperoxidase [1] (setting [3]) and at myeloperoxidase [2] (read-out: APF Assay IC50 value) was 0.101 to 0.999 µM throughout.
For `Nc1cc(C(CCN[C@H]2CC[C@H](c3ccc(=O)[nH]c3)CC2)c2ccccc2)c2nn[nH]c2n1` (stereo partly drawn) [Example 134, 5-[(trans)-4-[(3-{5-amino-3H-[1,2,3]triazolo[4,5-b]pyridin-7-yl}-3-phenylpropyl)amino]cyclohexyl]-1,2-dihydropyridin-2-one], the IC50 at myeloperoxidase [1] (setting [3]) and at myeloperoxidase [2] (read-out: APF Assay IC50 value) was 0.101 to 0.999 µM each time.
Consider `COc1ccncc1[C@H]1CC[C@H](NCCC(c2ccccc2)c2cc(N)nc3[nH]nnc23)CC1` (stereo partly drawn) [Example 137, 7-(1-phenyl-3-{[(trans)-4-(4-methoxypyridin-3-yl)cyclohexyl]amino}propyl)-3H-[1,2,3]triazolo [4,5-b]pyridin-5-amine], for which the values for the 50% inhibitory concentration (IC50) on myeloperoxidase [1] (setting [3]) and on myeloperoxidase [2] (read-out: APF Assay IC50 value) were 1 to 10 µM and 0.101 to 0.999 µM, respectively.
For `COc1ccncc1[C@H]1CC[C@@H](NCCC(c2ccccc2)c2cc(N)nc3[nH]nnc23)CC1` (some centres unmarked) [Example 138, 7-(1-phenyl-3-{[(1s,4s)-4-(4-methoxypyridin-3-yl)cyclohexyl]amino}propyl)-3H-[1,2,3]triazolo [4,5-b]pyridin-5-amine] the same measures were 1 to 10 µM and 1 to 10 µM.
In the case of `Nc1cc(C(CCN[C@H]2CC[C@H](c3ccncc3)CC2)c2ccccc2)c2nn[nH]c2n1` (stereo partly drawn) [Example 139, 7-(1-phenyl-3-{[(trans)-4-(pyridin-4-yl)cyclohexyl]amino}propyl)-3H-[1,2,3] triazolo[4,5-b] pyridin-5-amine], the 50% inhibitory concentration (IC50) at myeloperoxidase [1] (setting [3]) fell in the range of 0.101 to 0.999 µM; at myeloperoxidase [2] (read-out: APF Assay IC50 value), 0.001 to 0.1 µM.
With `Nc1cc(C(CCN[C@H]2CC[C@@H](c3ccncc3)CC2)c2ccccc2)c2nn[nH]c2n1` (some centres unmarked) [Example 141, 7-(1-phenyl-3-{[(1s,4s)-4-(pyridin-4-yl)cyclohexyl]amino}propyl)-3H-[1,2,3]triazolo [4,5-b]pyridin-5-amine], the concentration for half-maximal inhibition (IC50) at myeloperoxidase [1] (setting [3]) and on myeloperoxidase [2] (read-out: APF Assay IC50 value) was 0.101 to 0.999 µM each time.
For the compound `Nc1cc(C(CCNC2(Cc3ccccc3)CCC(c3ccccc3)CC2)c2ccccc2)c2nn[nH]c2n1` (centres unmarked) [Example 142, 7-{3-[(1-benzyl-4-phenylcyclohexyl)amino]-1-phenylpropyl}-3H-[1,2,3]triazolo[4,5-b]pyridin-5-amine], the results for the IC50 at myeloperoxidase [1] (setting [3]) and on myeloperoxidase [2] (read-out: APF Assay IC50 value) were 1 to 10 µM and 0.101 to 0.999 µM, respectively.
As to `Nc1cc(C(CCNC2(c3ccccc3)CCC(c3ccccc3)CC2)c2ccccc2)c2nn[nH]c2n1` (centres unmarked) [Example 144, 7-{3-[(1,4-diphenylcyclohexyl)amino]-1-phenylpropyl}-3H-[1,2,3]triazolo [4,5-b]pyridin-5-amine], the 50% inhibitory concentration (IC50) on myeloperoxidase [1] (setting [3]) was in the range of 1 to 10 µM; on myeloperoxidase [2] (read-out: APF Assay IC50 value), 0.101 to 0.999 µM.
In the same order, the values of `Nc1cc(C(CCNC23CCC(c4ccccc4)(CC2)C(O)C3)c2ccccc2)c2nn[nH]c2n1` (centres unmarked) [Example 145, 4-[(3-{5-amino-3H-[1,2,3]triazolo[4,5-b]pyridin-7-yl}-3-phenylpropyl)amino]-1-phenylbicyclo [2.2.2]octan-2-ol] are 0.001 to 0.1 µM and 0.001 to 0.1 µM.
`Nc1cc(C(CCN[C@H]2CC[C@H](n3cncn3)CC2)c2ccccc2)c2nn[nH]c2n1` (stereo partly drawn) [Example 146, 7-(1-phenyl-3-{[(trans)-4-(1H-1,2,4-triazol-1-yl)cyclohexyl]amino}propyl)-3H-[1,2,3] triazolo[4,5-b] pyridin-5-amine]: the results for the IC50 at myeloperoxidase [1] (setting [3]) and at myeloperoxidase [2] (read-out: APF Assay IC50 value) were 1 to 10 µM and 0.101 to 0.999 µM, respectively.
In the same order, the values of `CC1CC2(NCCC(c3ccccc3)c3cc(N)nc4[nH]nnc34)CCC1(c1ccccc1)CC2` (centres unmarked) [Example 147, 7-[3-({3-methyl-4-phenylbicyclo[2.2.2]octan-1-yl}amino)-1-phenylpropyl]-3H-[1,2,3]triazolo [4,5-b]pyridin-5-amine] are 0.001 to 0.1 µM and 0.001 to 0.1 µM.
In the same order, the values of `COC1CC2(NCCC(c3ccccc3)c3cc(N)nc4[nH]nnc34)CCC1(c1ccccc1)CC2` (centres unmarked) [Example 148, 7-[3-({3-methoxy-4-phenylbicyclo [2.2.2]octan-1-yl}amino)-1-phenylpropyl]-3H-[1,2,3]triazolo[4,5-b]pyridin-5-amine] are 0.001 to 0.1 µM and 0.001 to 0.1 µM.
Consider `Nc1cc(C(CCNC2CC3CCC(C2)C3c2ccccc2)c2ccccc2)c2nn[nH]c2n1` (centres unmarked) [Example 149, 7-[1-phenyl-3-({8-phenylbicyclo[3.2.1]octan-3-yl}amino)propyl]-3H-[1,2,3]triazolo[4,5-b] pyridin-5-amine], for which the concentration for half-maximal inhibition (IC50) on myeloperoxidase [1] (setting [3]) was in the range of 1 to 10 µM; on myeloperoxidase [2] (read-out: APF Assay IC50 value) it was 0.101 to 0.999 µM.
In the same order, the values of `Nc1cc(C(CCNC2CC[C@H](c3ccccc3)[C@@H](O)C2)c2ccccc2)c2nn[nH]c2n1` (stereo partly drawn) [Example 150, (1S,2R)-5-[(3-{5-amino-3H-[1,2,3]triazolo[4,5-b]pyridin-7-yl}-3-phenylpropyl)amino]-2-phenylcyclohexan-1-ol] are 0.101 to 0.999 µM and 0.001 to 0.1 µM.
In the same order, the values of `Nc1cc(C(CCNC2(C(F)(F)F)CCC(c3ccccc3)CC2)c2ccccc2)c2nn[nH]c2n1` (centres unmarked) [Example 151, 7-(1-phenyl-3-{[4-phenyl-1-(trifluoromethyl)cyclohexyl]amino}propyl)-3H-[1,2,3]triazolo[4,5-b] pyridin-5-amine] are 1 to 10 µM and 1 to 10 µM.
For `Nc1cc(C(CCNC23CCC(c4ccccc4)(CC2)CC3O)c2ccccc2)c2nn[nH]c2n1` (centres unmarked) [Example 152, 1-[(3-{5-amino-3H-[1,2,3]triazolo[4,5-b]pyridin-7-yl}-3-phenylpropyl)amino]-4-phenylbicyclo [2.2.2]octan-2-ol] the same measures were 0.001 to 0.1 µM and 0.001 to 0.1 µM.
On to `COC1CC2(c3ccccc3)CCC1(NCC[C@H](c1ccccc1)c1cc(N)nc3[nH]nnc13)CC2` (stereo partly drawn) [Example 153, 7-[(1R)-3-({2-methoxy-4-phenylbicyclo[2.2.2]octan-1-yl}amino)-1-phenylpropyl]-3H-[1,2,3]triazolo[4,5-b]pyridin-5-amine], for which the IC50 at myeloperoxidase [1] (setting [3]) and at myeloperoxidase [2] (read-out: APF Assay IC50 value) was 0.001 to 0.1 µM in each case.
Take `Nc1cc([C@H](CCNC23CCC(c4ccccc4)(CC2)C(O)C3)c2ccccc2)c2nn[nH]c2n1` (stereo partly drawn) [Example 154, 4-{[(3R)-3-{5-amino-3H-[1,2,3]triazolo [4,5-b]pyridin-7-yl}-3-phenylpropyl]amino}-1-phenylbicyclo [2.2.2]octan-2-ol]: the IC50 at myeloperoxidase [1] (setting [3]) and on myeloperoxidase [2] (read-out: APF Assay IC50 value) was 0.001 to 0.1 µM throughout.
`N#Cc1cccc(C(CCNC2CCC(c3ccccc3)CC2)c2cc(N)nc3[nH]nnc23)c1` (centres unmarked) [Example 155, 3-(1-{5-amino-3H-[1,2,3]triazolo [4,5-b]pyridin-7-yl}-3-[(4-phenylcyclohexyl)amino]propyl)benzonitrile]: the IC50 at myeloperoxidase [1] (setting [3]) lay in the range of 0.101 to 0.999 µM; at myeloperoxidase [2] (read-out: APF Assay IC50 value) it was 0.001 to 0.1 µM.
In the case of `Nc1cc(C(CCN[C@H]2CC[C@H](c3ccccc3)CC2)c2cccc(F)c2)c2nn[nH]c2n1` (stereo partly drawn) [Example 156, 7-[1-(3-fluorophenyl)-3-{[(trans)-4-phenylcyclohexyl]amino}propyl]-3H-[1,2,3]triazolo [4,5-b]pyridin-5-amine], the concentration for half-maximal inhibition (IC50) at myeloperoxidase [1] (setting [3]) was 0.101 to 0.999 µM; at myeloperoxidase [2] (read-out: APF Assay IC50 value), 0.001 to 0.1 µM.
